Values joined by “and” are separate entries in the source; they are usually repeats but may differ in a detail not shown here. Equal entries are not always repeated.
Key:
[1] = system: 2F2B mouse endothelial cells; assay: XTT cell viability assay (cytotoxicity of peptides); type: cell-based; settings: 2F2B cells; for IC50: 3 hours of treatment at 37° C., XTT
Procedure: For each peptide, cytotoxicity was assessed in 2F2B mouse endothelial cells by the XTT cell viability assay (Biotium, Hayward, Calif.). Cells were seeded in 96-well plates at 10,000 cells/well 24 hours before treatment with melittin and mutated melittins at selected concentrations. After 3 hours of treatment at 37° C., 25 μl of activated XTT solution was added to each well and incubated at 37° C. for 5 hours. After 5 hours of incubation, plates were gently shaken to achieve even dye distribution. The absorbances of the samples were measured by a microplate reader (Biorad, Model 550, Hercules, Calif.) at a wavelength of 450 nm. Background was subtracted and the results were normalized to untreated control cells.

[2] = Surface plasmon resonance (Biacore X 100) binding of peptides on immobilized oil-based nanoparticles; settings: sensor chip L1, read-out: dissociation constant
Procedure: (§1) In order to evaluate whether linker peptide 1 (LP1) and linker peptide 2 (LP2) still retained high affinity on a lipid monolayer of the nanoparticles, surface plasmon resonance (SPR) studies were performed by using Biacore X 100 (Biacore Inc, Piscataway, N.J.). The binding kinetics and affinity of LP1 and LP2 on two type of nanoparticles were studied. One type was perfluorocarbon nanoparticles (e.g., perfluorooctylbromide, PFOB), the other type was oil-based (safflower core) nanoparticles. PBS (Ca^2+ and Mg^2+ free) was used as the running buffer. Nanoparticles were immobilized on Biacore sensor chip L1 by injecting nanoparticles at a flow rate of 1 μl/min for 30 minutes, followed by a running buffer wash at a flow rate of 100 μl/min for 50 seconds. Peptides in selected concentrations, prepared in running buffer, were then injected at a flow rate of 30 μl/min for 1 minute. At the end of each experiment, the sensor chip surface was regenerated by injection of 3-[(3-cholamidopropyl)dimethylammonio]-1-propanesulfonate (CHAPS) at a flow rate of 100 μl/min for 24 seconds.

[3] = Surface plasmon resonance (Biacore X 100) binding of peptides on immobilized perfluorocarbon nanoparticles; settings: read-out: dissociation constant
Procedure: as §1
The binding kinetics of the resulting VCAM-targeting peptides (i.e., TCP1 and TCP2) on perfluorocarbon nanoparticles were examined using Biacore X 100. PBS (Ca^2+ and Mg^2+ free) was used as the running buffer. Nanoparticles were immobilized on Biacore sensor chip L1 by injecting nanoparticles at a flow rate of 1 μl/min for 30 minutes, followed by a running buffer wash at a flow rate of 100 μl/min for 50 seconds. Targeting peptide prepared at selected concentrations in running buffer was sequentially injected at a flow rate of 30 μl/min for 1 minute. At the end of each experiment, the sensor chip surface was regenerated by injection of 3-[(3-cholamidopropyl)dimethylammonio]-1-propanesulfonate (CHAPS) at a flow rate of 100 μl/min for 24 seconds. FIG. 8 presents selected sensorgrams at several different concentrations of the two VCAM-targeting peptides. The dissociation constant of TCP1 and TCP2 were 0.13 μM and 0.04 μM, respectively.

[4] = Dissociation of loaded peptide from PFOB nanoparticles (tryptophan fluorescence of supernatant); type: physicochemical; settings: stored at 4° C., up to 70 hours after loading
Procedure: The dissociation of the peptide from linker peptide 1-loaded PFOB nanoparticles is depicted in FIG. 4. After being loaded with the linker peptide 1, the loaded PFOB nanoparticles were stored at 4° C. for 30 minutes, 1 hour, 2 hours, 4 hours, 22 hours, 46 hours, and 70 hours. The loaded nanoparticles were centrifuged at 100 g for 10 minutes, and the dissociated linker peptide 1 was measured by using tryptophan fluorescence after excitation at 280 nm in a fluorescent spectrofluorometer (Varian Inc, Palo Alto, Calif.).
FIG. 9 presents the dissociation of TCP1 or TCP2 from loaded PFOB nanoparticles as a function of time after loading. After loaded with TCP1 or TCP2, the PFOB nanoparticles were stored at 4° C. for 30 minutes, 1 hour, 2 hours, 4 hours, 22 hours, 46 hours, and 70 hours. The stored nanoparticles were then centrifuged at 100 g for 10 minutes and dissociated TCP1 or TCP2 was measured using tryptophan fluorescence after excitation at 280 nm in a fluorescent spectrofluorometer (Varian Inc, Palo Alto, Calif.).

[5] = Dynamic light scattering size and zeta potential of peptide-loaded liposomes; type: physicochemical
Procedure: (§2) The size distributions of the nanoparticles with or without the linker peptide were analyzed by dynamic light scattering (Brookhaven Instruments Corp., Holtsville, N.Y.). Zeta potential (ζ) values were determined with a Brookhaven Instruments PALS Zeta Potential Analyzer (Brookhaven Instruments Corp., Holtsville, N.Y.). Data were acquired in the phase-analysis light scattering (PALS) mode following solution equilibration at 25° C. […] This change further confirms the insertion of the linker peptide 1 into the PFOB nanoparticles. Furthermore, the structural integrity of linker peptide 1 inserted PFOB nanoparticles was confirmed by transmission electron microscopy.
The interactions between linker peptide 1 and liposomes are depicted in FIG. 6. […] This change further confirms that the linker peptide 1 inserted into the liposomes.

[6] = Dynamic light scattering size and zeta potential of peptide-loaded PFOB/PFC nanoparticles; type: physicochemical; settings: for zeta potential: PFOB nanoparticles after incorporating the peptide (plain nanoparticles −17.62 mV); for average hydrodynamic diameter: PFOB nanoparticles with versus without inserted peptide
Procedure: as §2
The size distributions of the nanoparticles with or without cargo incorporated were analyzed by dynamic light scattering (Brookhaven Instruments Corp., Holtsville, N.Y.). The size distribution was plotted by particle number. Zeta potential (ζ) values were determined with a Brookhaven Instruments PALS Zeta Potential Analyzer (Brookhaven Instruments Corp., Holtsville, N.Y.). Data were acquired in the phase-analysis light scattering (PALS) mode following solution equilibration at 25° C.

VCAM-1 = target: T1, VCAM-1 (Mus musculus, UniProt P29533); assay: Specific binding of VCAM targeted nanoparticles by confocal microscopy; type: cell-based; settings: Alexa Fluor 488 labeled PFOB nanoparticles, TNF-α stimulated 2F2B cells, 1 hour
T1 construct: endogenous in cells; host or cells: 2F2B endothelial cells, TNF-α stimulated
T1 sequence (P29533 25-739): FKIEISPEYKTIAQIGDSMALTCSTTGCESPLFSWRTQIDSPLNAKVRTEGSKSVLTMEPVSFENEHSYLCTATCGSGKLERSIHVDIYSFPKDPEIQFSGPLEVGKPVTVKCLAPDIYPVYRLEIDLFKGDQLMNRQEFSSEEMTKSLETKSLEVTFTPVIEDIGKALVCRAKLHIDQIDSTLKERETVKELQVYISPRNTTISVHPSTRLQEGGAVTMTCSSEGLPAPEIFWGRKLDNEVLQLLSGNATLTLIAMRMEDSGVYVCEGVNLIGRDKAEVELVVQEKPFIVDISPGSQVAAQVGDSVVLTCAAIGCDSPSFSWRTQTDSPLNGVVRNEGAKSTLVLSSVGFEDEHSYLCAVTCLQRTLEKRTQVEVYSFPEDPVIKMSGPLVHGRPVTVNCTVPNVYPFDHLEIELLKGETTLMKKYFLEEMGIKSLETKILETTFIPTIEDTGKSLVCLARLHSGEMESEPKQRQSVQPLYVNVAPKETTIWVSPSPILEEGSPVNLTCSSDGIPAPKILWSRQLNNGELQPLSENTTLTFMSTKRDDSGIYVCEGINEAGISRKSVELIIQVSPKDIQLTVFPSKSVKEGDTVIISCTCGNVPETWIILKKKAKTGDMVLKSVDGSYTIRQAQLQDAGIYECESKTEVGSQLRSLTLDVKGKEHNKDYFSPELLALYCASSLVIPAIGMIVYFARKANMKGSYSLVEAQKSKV
Procedure: The specific binding of VCAM targeted nanoparticles was evaluated by confocal microscopy in 2F2B cells, which express VCAM-1 on the cell surface after TNF-α stimulation. Alexa Fluor 488 labeled PFOB nanoparticles comprising the VCAM-targeting peptide (TCP1 or TCP2) or nanoparticles themselves were incubated with TNF-α stimulated 2F2B cells in Delta T Culture dish at 37° C. for 1 hour, followed by five PBS washes. Cells were then fixed by incubation in 1 ml of 4% paraformaldehyde at 37° C. for 5 minutes. After fixation, the cells were washed with PBS for 5 times and the cells were visualized using a confocal microscope (Zeiss Meta 510, Thornwood, N.Y.) with standard filter sets. Concomitant differential interference contrast (DIC) imaging was used to determine the location of nanoparticles in the cells.

[7] = on perfluorocarbon nanoparticles, sensor chip L1
[8] = VCAM-targeting peptides on perfluorocarbon nanoparticles

**Q.** Which IC50 [1] does the source give for `CC[C@H](C)[C@H](NC(=O)CNC(C)=O)C(=O)NCC(=O)N[C@@H](C)C(=O)N[C@@H](Cc1c[nH]c2ccccc12)C(=O)N[C@@H](CC(C)C)C(=O)N[C@@H](CCCCN)C(=O)N[C@H](C(=O)N[C@@H](CC(C)C)C(=O)N[C@H](C(=O)N[C@H](C(=O)NCC(=O)N[C@@H](CC(C)C)C(=O)N1CCC[C@H]1C(=O)N[C@@H](C)C(=O)N[C@@H](CC(C)C)C(=O)N[C@H](C(=O)N[C@@H](CO)C(=O)N[C@@H](Cc1c[nH]c2ccccc12)C(=O)N[C@H](C(=O)N[C@@H](CCCCN)C(=O)N[C@@H](CCCNC(=N)N)C(=O)N[C@@H](CCCCN)C(=O)N[C@@H](CCCNC(=N)N)C(=O)N[C@@H](CCC(N)=O)C(=O)N[C@@H](CCC(N)=O)C(N)=O)[C@@H](C)CC)[C@@H](C)CC)[C@@H](C)O)[C@@H](C)O)C(C)C` [Peptide P1] here?
**A.** 0.75 ± 0.04 µM

**Q.** With `CC[C@H](C)[C@H](NC(=O)CNC(C)=O)C(=O)NCC(=O)N[C@@H](C)C(=O)N[C@H](C(=O)N[C@@H](CC(C)C)C(=O)N[C@@H](CCCCN)C(=O)N[C@H](C(=O)N[C@@H](CC(C)C)C(=O)N[C@H](C(=O)N[C@H](C(=O)NCC(=O)N[C@@H](CC(C)C)C(=O)N[C@@H](C)C(=O)N[C@@H](C)C(=O)N[C@@H](CC(C)C)C(=O)N[C@H](C(=O)N[C@@H](CO)C(=O)N[C@@H](Cc1c[nH]c2ccccc12)C(=O)N[C@H](C(=O)N[C@@H](CCCCN)C(=O)N[C@@H](CCCNC(=N)N)C(=O)N[C@@H](CCCCN)C(=O)N[C@@H](CCCNC(=N)N)C(=O)N[C@@H](CCC(N)=O)C(=O)N[C@@H](CCC(N)=O)C(N)=O)[C@@H](C)CC)[C@@H](C)CC)[C@@H](C)O)[C@@H](C)O)C(C)C)C(C)C` [Peptide P2] as the compound, how does the Kd [2] read?
**A.** 0.00064 µM

**Q.** What about the “cytotoxicity among the modified peptides (FIG. 2)” value [1] of the same compound?
**A.** least cytotoxicity

**Q.** And the IC50 [1]?
**A.** 26.6 ± 0.56 µM

**Q.** And the Kd [3, 7]?
**A.** 0.00548 µM

**Q.** For `CC[C@H](C)[C@H](NC(=O)[C@H](CC(C)C)NC(=O)[C@H](C)NC(=O)[C@@H]1CCCN1C(=O)[C@H](CC(C)C)NC(=O)CNC(=O)[C@@H](NC(=O)[C@@H](NC(=O)[C@H](CC(C)C)NC(=O)[C@@H](NC(=O)[C@H](CCCCN)NC(=O)[C@H](CC(C)C)NC(=O)[C@@H](NC(C)=O)C(C)C)C(C)C)[C@@H](C)O)[C@@H](C)O)C(=O)N[C@@H](CO)C(=O)N[C@@H](Cc1c[nH]c2ccccc12)C(=O)N[C@H](C(=O)N[C@@H](CCCCN)C(=O)N[C@@H](CCCNC(=N)N)C(=O)N[C@@H](CCCCN)C(=O)N[C@@H](CCCNC(=N)N)C(=O)N[C@@H](CCC(N)=O)C(=O)N[C@@H](CCC(N)=O)C(N)=O)[C@@H](C)CC` [Peptide P3], which IC50 [1] is on record?
**A.** 14.4 ± 0.92 µM

**Q.** What does the source list for `CC[C@H](C)[C@H](NC(=O)[C@H](CC(C)C)NC(=O)[C@H](C)NC(=O)[C@@H]1CCCN1C(=O)[C@H](CC(C)C)NC(=O)CNC(=O)[C@@H](NC(=O)[C@@H](NC(=O)[C@H](CC(C)C)NC(=O)[C@@H](NC(C)=O)C(C)C)[C@@H](C)O)[C@@H](C)O)C(=O)N[C@@H](CO)C(=O)N[C@@H](Cc1c[nH]c2ccccc12)C(=O)N[C@H](C(=O)N[C@@H](CCCCN)C(=O)N[C@@H](CCCNC(=N)N)C(=O)N[C@@H](CCCCN)C(=O)N[C@@H](CCCNC(=N)N)C(=O)N[C@@H](CCC(N)=O)C(=O)N[C@@H](CCC(N)=O)C(N)=O)[C@@H](C)CC` [Peptide P4, VLTTGLPALISWIKRKRQQ]?
**A.** loaded peptide dissociated from the PFOB nanoparticles [4]: < 10%; zeta potential ([5]; liposomes after incorporating the peptide (plain liposomes −36.73 mV)): −29.843 mV; average hydrodynamic diameter ([5]; liposomes with versus without inserted peptide): not affected; Kd [2]: 0.0229 µM; zeta potential [6]: +23.33 mV; average hydrodynamic diameter [6]: not affected; cytotoxicity among the modified peptides (FIG. 2) [1]: least cytotoxicity; IC50 [1]: 114 µM and 115 µM; decrease in cytotoxicity compared to MMLT ([1]; ratio of cytotoxicity index (IC50)): ~50 fold; cell toxicity ([1]; up to a concentration of 90 μM): essentially no cell toxicity; Kd [3, 7]: 0.225 µM

**Q.** With `CC[C@H](C)[C@H](NC(=O)CNC(C)=O)C(=O)NCC(=O)N[C@@H](C)C(=O)N[C@H](C(=O)N[C@@H](CC(C)C)C(=O)N[C@@H](CCCCN)C(=O)N[C@H](C(=O)N[C@@H](CC(C)C)C(=O)N[C@H](C(=O)N[C@H](C(=O)NCC(=O)N[C@@H](CC(C)C)C(=O)N1CCC[C@H]1C(=O)N[C@@H](C)C(=O)N[C@@H](CC(C)C)C(=O)N[C@H](C(=O)N[C@@H](CO)C(=O)N[C@@H](Cc1c[nH]c2ccccc12)C(=O)N[C@H](C(=O)N[C@@H](CCCCN)C(=O)N[C@@H](CCCNC(=N)N)C(N)=O)[C@@H](C)CC)[C@@H](C)CC)[C@@H](C)O)[C@@H](C)O)C(C)C)C(C)C` [Peptide P5] as the compound, how does the IC50 [1] read?
**A.** 6.41 ± 0.64 µM

**Q.** Which results are given for VHPKQHRggVLTTGLPALISWIKR [TCP2]?
**A.** zeta potential [6]: 12.43 mV; average hydrodynamic diameter [6]: not affected; Kd [3, 8]: 0.04 µM

**Q.** For VLTTGLPALISWIKRggVHPKQHR [TCP1], which zeta potential [6] is on record?
**A.** 13.47 mV

**Q.** What about the average hydrodynamic diameter [6] of the same compound?
**A.** not affected

**Q.** And the Kd [3, 8]?
**A.** 0.13 µM

**Q.** What about the “binding to cellular VCAM-1 (fluorescent signal)” value (VCAM-1) of the same compound?
**A.** better binding

Reference: patent US8617516B2, “Universal anchor peptide for nanoparticles” (Washington University, priority 2008, dated 2013)
